Source: BindingDB's records for doi:10.1016/S0960-894X(00)80413-8 (1992)

Molecular target: Ribose-phosphate pyrophosphokinase (Escherichia coli) (UniProt P0A717)
Assay: Inhibitory concentration against Escherichia coli Pyrophosphate Synthetase (PRPP)

Chain of Ribose-phosphate pyrophosphokinase (Escherichia coli) (P0A717 whole entry, looked up): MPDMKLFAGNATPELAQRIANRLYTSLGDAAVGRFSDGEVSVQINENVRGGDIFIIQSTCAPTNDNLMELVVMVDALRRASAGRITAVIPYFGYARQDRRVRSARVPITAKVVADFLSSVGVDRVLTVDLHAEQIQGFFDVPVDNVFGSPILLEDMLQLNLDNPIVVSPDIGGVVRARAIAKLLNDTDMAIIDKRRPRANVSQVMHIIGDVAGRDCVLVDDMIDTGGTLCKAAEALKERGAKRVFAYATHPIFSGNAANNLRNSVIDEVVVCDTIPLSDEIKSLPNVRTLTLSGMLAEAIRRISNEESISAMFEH

| IC50 [µM] | Compound |
| --- | --- |
| 600 | Nc1ncnc2c1ncn2[C@H]1CC[C@@H](CCOP(=O)(O)O)C1 [Phosphoric acid mono-{2-[(1R,3S)-3-(6-amino-purin-9-yl)-cyclopentyl]-ethyl} ester] |
| 5100 | Nc1ncnc2c1ncn2[C@@H]1O[C@H](COP(=O)(O)O)[C@H](O)[C@@H]1O [Phosphoric acid mono-[(2R,3R,4S,5R)-5-(6-amino-purin-9-yl)-3,4-dihydroxy-tetrahydro-furan-2-ylmethyl] ester] |
| 1000 | Nc1ncnc2c1ncn2[C@H]1CC[C@@H](CC(F)(F)P(=O)(O)O)C1 [{2-[(1R,3S)-3-(6-Amino-purin-9-yl)-cyclopentyl]-1,1-difluoro-ethyl}-phosphonic acid] |

| Compound | IC50 [µM] |
| --- | --- |
| Nc1ncnc2c1ncn2CCOCP(=O)(O)O [9-[2-phosphonomethoxyethyl]adenine] | 3200 |
